One molecule from patent publication US20210290568A1, “INHALABLE FORMULATION OF A SOLUTION CONTAINING LEVALBUTEROL TARTRATE” (priority 2020, published 2021) can be followed below.

This data set in a line: Aerodynamic particle size distribution by Andersen Cascade Impactor (ACI). As to conditions: flow rate 28.3 L/min, Samples I-V. It is filed as physicochemical. Here is the method: An Andersen Cascade Impactor (ACI) was used to determine the particle size distribution of Samples I-V. The test was conducted at a flow rate of 28.3 L/min. Deposition of the active substance on each ACI plate was determined by high performance liquid chromatography. The particle size was expressed in terms of mass median aerodynamic diameter (MMAD) and Geometric Standard Deviation (GSD).

On to `CC(C)(C)NC[C@H](O)c1ccc(O)c(CO)c1.O=C(O)C(O)C(O)C(=O)O` [Levalbuterol Tartrate, 4-[(1R)-2-(tert-butylamino)-1-hydroxyethyl]-2-(hydroxymethyl)phenol; (2R,3R)-2,3-dihydroxybutanedioic acid], for which the GSD came out at 1.7 and the MMAD came out at 4.4 μm.
